Measurements as given in article PMC11203957, “Naphthoquinone-Quinolone Hybrids with Antitumor Effects on Breast Cancer Cell Lines—From the Synthesis to 3D-Cell Culture Effects” (International Journal of Molecular Sciences, 2024).

Key:
MCF-7 [1] = test: MTT cell viability assay, MCF-7 (2D culture); assay type: cell-based, human; conditions: for IC50: Homo sapiens, MCF7, MTT, 24 h treatment, 2D culture, read-out: IC50 ± SEM MCF-7; for SI IC50 MCF10A/IC50 MCF-7: selectivity index
Method: (§1) Our first approach to assessing the anticancer activity of the novel 1,4-naphthoquinone/4-quinolone conjugates 11a–f on breast cancer cells involved comparing their effects in the MTT cell viability assay to determine the half-maximal inhibitory concentration (IC50) in the 2D cell culture model. Doxorubicin and 1,4-naphthoquinone were used as controls. Concentration-response curves were obtained with the conjugates at concentrations ranging from 0 to 200 µM. […] This observation aligns with the structural characteristics of this derivative, which features the largest alkyl substituent at position R^1.
(§2) The IC50 values were calculated using GraphPad Prism v. 8.0.1, and the selectivity index was estimated as the ratio between the IC50 value of MCF10A/IC50 value of MDA-MB-231 or MCF-7 [33], for each compound.

MDA-MB-231 = test: MTT cell viability assay, MDA-MB-231 (2D culture); assay type: cell-based, human; conditions: for IC50: Homo sapiens, MDA-MB-231, MTT, 24 h treatment, 2D culture, read-out: IC50 ± SEM MDA-MB-231; for SI IC50 MCF10A/ IC50 MDA-MB-231: selectivity index
Method: as §1, §2

MCF-7 cells [2] = test: Annexin V/PI apoptosis assay, MCF-7; assay type: cell-based, human; conditions: 50 µM
Method: (§3) We investigated apoptosis induction through the annexin V/PI protocol, as described in Section 3. Doxorubicin, 1,4-naphthoquinone, and cisplatin were used as controls. […] For MDA-MB-231 cells (Figure 5B), the effects observed were more prominent at the concentrations tested.
(§4) For the apoptosis assay, the manufacturer’s instructions were followed (Dead Cell Apoptosis Kit with Annexin V for Flow Cytometry, Thermo Fisher Scientific, MA, USA). The cells were analyzed in a Countess II FL cell counter (Thermo Fisher Scientific, Waltham, MA, USA).
(§5) Figure 5 Naphthoquinone-quinolone hybrids induce apoptosis in MCF-7 (A) and MDA-MB-231 (B) cells at different levels.

MCF-7 [3] = test: Clonogenic assay, MCF-7; assay type: cell-based, human; conditions: 25 µM, 24 h treatment, about 14 days growth
Source text: (§6) The clonogenic assay is an effective tool for investigating individual cells’ ability to form colonies. Tumor cells with the ability to generate an expanding family of descendants are clonogenic. Therefore, a clonogenic assay is a simple method to verify one of the important characteristics of cancer cells, which is the ability to detach from the site of origin and to form metastases in other locations. […] For instance, 90–99% of the tumor cells in FaDU tumors, a type of human squamous cell carcinoma observed in nude mice, are non-clonogenic. To achieve the main goal of cancer treatment, which is tumor eradication, it is necessary to inactivate all clonogenic cells through either cell killing or the induction of a permanent state of dormancy, thereby eliminating their clonogenic capacity. The assessment of the potential of a drug to achieve a curative outcome, i.e., effectively neutralizing clonogenic tumor cells, requires the utilization of experimental endpoints that accurately reflect the response of clonogenic cells. Clonogenic endpoints hold particular significance when novel anticancer agents are incorporated into curative therapeutic regimens, such as in combination with radiotherapy or chemotherapy. Thus, clonogenic assays were conducted for compounds 11a–f and 1,4-naphthoquinone.
(§7) Figure 6 The inhibition of colony formation by compounds 11a–f using MCF-7 (A,C) and MDA-MB-231 (B,D) cell lines. Cells were treated with derivatives 11a–f at 25 µM for 24 h. Subsequently, 400 cells were plated on 6-well plates for approximately 14 days. Then, cells were stained with crystal violet dye to visualize the colonies formed.

MDA-MB-231 cells [4] = test: Clonogenic assay, MDA-MB-231; assay type: cell-based, human; conditions: 25 µM, 24 h treatment, about 14 days growth
Source text: as §6, §7

MCF-7 cells [5] = test: Reversibility assay (MTT viability), MCF-7; assay type: cell-based, human; conditions: 25 µM; 24 h, 24 + 24 h, 48 h
Method: (§8) Our next issue concerned the reversibility of the effects: whether they persisted through a longer time of treatment, or if they ceased after the removal of the treatments. To investigate this, we used each compound at 25 µM and treated the MCF-7 and MDA-MB-231 cells for 24 h and 48 h. The 48-h treatment group was further subdivided into two different categories: the first was treated for 24 h, after which the culture medium was replaced with fresh medium without the compound, and then incubated for an additional 24-h period (24 + 24 h). In the second category, cells were continuously exposed to the compound for the entire 48-h duration, without any handling during this period. Cell viability was assessed as the evaluation parameter. The results are shown in Figure 7A (MCF-7) and Figure 7B (MDA-MB-231). […] In MCF-7 cells, the effect observed is similar, with a lower intensity of apoptosis induction.
(§9) Figure 7 Reversibility assay: investigating the effects of treatment durability on cell viability of (A) MCF-7 cells and (B) MDA-MB-231 cells. Cells were treated in three different manners: (1) for 24 h, continuously; (2) for 24 h, followed by removal of the treatment and addition of fresh medium, then further cultivation for 24 h; and (3) for a total period of 48 h. Cell viability was measured using the MTT assay. * p < 0.05, Student’s t-test, n = 3.

MDA-MB-231 cells [6] = test: Reversibility assay (MTT viability), MDA-MB-231; assay type: cell-based, human; conditions: 25 µM; 24 h, 24 + 24 h, 48 h
Method: as §8, §9

MCF-7 spheroids = test: 3D-cell culture (spheroids), morphology and acid phosphatase viability, MCF-7; assay type: cell-based, human; conditions: 25 µM, 48 h
Source text: 3D-cell cultures display features that resemble in vivo tumors: due to their tridimensional structure, cells are not provided with the same amounts of oxygen and nutrients in the center as on the surface, resulting in a gradient that leads to the formation of a necrotic core, similar to the in vivo tumor environment. In the 3D-cell culture model used here, spheroids are formed due to low interaction with the microplate bottom, promoted by its coating with agarose, and strong cell-to-cell interactions in MCF-7 cells, generating a finely compact and homogeneous spheroid. For MDA-MB-231 cells, the addition of collagen I is an extra stimulus necessary for spheroid stabilization. Spheroids were prepared and grown for 48 h and then treated with the compounds at 25 µM. After 48 h, morphological changes were observed, and their viabilities were measured as described in Section 3. The exposure to the compounds for 48 h promoted visible changes in the morphologies of spheroids for both cell lines when compared to the controls (Figure 8). […] While it is more complicated to imply changes in the proliferative (surface) region of the MDA-MB-231 spheroids (Figure 8B), they are observed together with morphological changes after treatment, making them appear more crumbly and lose their round shape. These findings are in line with the viability test, which detected a reduction in the viabilities for all of them, which is significant compared to the control (p < 0.05), except for 11a in MDA-MB-231 spheroids (Figure 8C,D). We should also highlight that the concentrations necessary for an effect on spheroids are expected to be higher when compared to 2D-cell culture models. Here, we observed changes using 25 µM of each compound, as performed in the other experiments.
The procedure was performed as described by Gong et al., with a few modifications. A total of 5000 cells per well were plated on 96-well plates with bottoms previously covered with 50 µL of a 1% agarose solution. The plates were then centrifuged at 300× g for 10 min. For MDA-MB-231 cells, collagen I from rat tail (Gibco) was added to a 3 µg/mL final concentration in the cell suspension. […] The cell spheroids/aggregates were treated with fresh medium added to the compounds and their viability was evaluated after 48 h. Spheroids were photographed with an inverted microscope Bel INV-100 (Bel Engineering, Monza, Italy) equipped with a digital camera.
To measure spheroids viability, this viability assay was performed following Friedrich et al.. The medium was removed from wells and spheroids were washed with PBS. Then, 100 µL of a solution containing 2 mg/mL p-nitrophenyl phosphate (PNPP), 0.1 M citric acid, and 0.1% (v/v) Triton X, pH 5.0 were added. […]

MCF10A = test: MTT cell viability assay, non-tumor MCF10A; conditions: Homo sapiens, MCF-10A, 24 h, read-out: IC50 ± SEM MCF10A
[7] = system: gastric cancer cells ACP03; design: method as in PMID 24858098; conditions: cited from earlier work
topoisomerase II = system: topoisomerase II; design: method as in PMID 24858098; conditions: in vitro and in silico studies; cited from earlier work
[8] = system: cervix adenocarcinoma (HeLa); design: method as in PMID 22406451; conditions: cited from earlier work
[9] = system: hepatocellular carcinoma (BEL7402); design: method as in PMID 22406451; conditions: cited from earlier work
MDA-MB-231 cells [10] = test: Annexin V/PI apoptosis assay, MDA-MB-231; assay type: cell-based, human; conditions: 50 µM
Method: as §3, §4, §5

Row | Compound | IC50 (MCF-7 [1]) [µM] | SI IC50 MCF10A/IC50 MCF-7 (MCF-7 [1]) | IC50 (MDA-MB-231) [µM] | SI IC50 MCF10A/ IC50 MDA-MB-231 (MDA-MB-231) | early apoptosis induction (annexin V/PI), MCF-7 (MCF-7 cells [2]) | colony formation, MCF-7 (MCF-7 [3]) | IC50 (MCF10A) [µM] | other results
1 | O=C1C=CC(=O)c2ccccc21 [1,4-Naphthoquinone, 1,4-naphthoquinone, reference compound] | 29.5 ± 1 | 0.30 ± 0.13 | 19.3 ± 1.1 | 0.46 ± 0.14 | comparable | Significant reductions in colony formation | 8.78 ± 1.1 | colony formation, MDA-MB-231 (MDA-MB-231 cells [4]): Significant reductions in colony formation; duration and reversibility of the effect on cell viability, MCF-7 (MCF-7 cells [5]): irreversible effect; duration and reversibility of the effect on cell viability, MDA-MB-231 (MDA-MB-231 cells [6]): irreversible effect; spheroid morphology, MCF-7 (MCF-7 spheroids): changes in the morphology
2 | Cc1ccc(NC(=O)c2c[nH]c3ccc(Cl)cc3c2=O)cc1 [Compound 2a] |  |  |  |  |  |  |  | IC50 [7]: 1.92 µM; topoisomerase II activity inhibition (topoisomerase II): able to inhibit topoisomerase II activity
3 | O=C(Nc1cc(Cl)ccc1Cl)c1c[nH]c2ccc(Cl)cc2c1=O [Compound 2b] |  |  |  |  |  |  |  | IC50 [7]: 5.18 µM; topoisomerase II activity inhibition (topoisomerase II): able to inhibit topoisomerase II activity
4 | CCCCCCCCC/C=C\CCCCc1cc(=O)c2ccccc2n1C [Compound 3] |  |  |  |  |  |  |  | IC50 [8]: 18.5 ± 1.2 µM; IC50 [9]: 15.8 ± 1.4 µM
5 | CCOC(=O)c1cn(Cc2ccccc2)c2ccc(C3=CC(=O)c4ccccc4C3=O)cc2c1=O [Compound 11b, Ethyl 1-benzyl-6-(1,4-dioxo-1,4-dihydronaphthalen-2-yl)-4-oxo-1,4-dihydroquinoline-3-carboxylate] | 19.4 ± 1.1 | 0.55 ± 0.13 | 15.1 ± 1 | 0.71 ± 0.14 | comparable |  | 10.7 ± 1.3 | 
6 | CCCCCn1cc(C(=O)OCC)c(=O)c2cc(C3=CC(=O)c4ccccc4C3=O)ccc21 [Compound 11c, Ethyl 6-(1,4-dioxo-1,4-dihydronaphthalen-2-yl)-4-oxo-1-pentyl-1,4-dihydroquinoline-3-carboxylate] | 32.8 ± 1.1 | 0.31 ± 0.11 | 16.4 ± 1.1 | 0.62 ± 0.12 |  | most effective | 10.2 ± 1.1 | apoptosis profile (annexin V/PI), MDA-MB-231 (MDA-MB-231 cells [10]): induces apoptosis; duration and reversibility of the effect on cell viability, MCF-7 (MCF-7 cells [5]): short effect; duration and reversibility of the effect on cell viability, MDA-MB-231 (MDA-MB-231 cells [6]): not capable of sustaining the antitumor effect after 48 h of treatment
7 | CCn1cc(C(=O)O)c(=O)c2cc(C3=CC(=O)c4ccccc4C3=O)ccc21 [Compound 11d, 6-(1,4-dioxo-1,4-dihydronaphthalen-2-yl)-1-ethyl-4-oxo-1,4-dihydroquinoline-3-carboxylic acid] | 25.1 ± 1.2 | 0.85 ± 0.07 | 20.1 ± 1.1 | 1.07 ± 0.08 |  |  | 21.5 ± 1.2 | colony formation, MDA-MB-231 (MDA-MB-231 cells [4]): most effective; spheroid morphology, MCF-7 (MCF-7 spheroids): changes in the morphology; melting point: > 300 °C
8 | CCCCCn1cc(C(=O)O)c(=O)c2cc(C3=CC(=O)c4ccccc4C3=O)ccc21 [Compound 11f, 6-(1,4-dioxo-1,4-dihydronaphthalen-2-yl)-4-oxo-1-pentyl-1,4-dihydroquinoline-3-carboxylic acid] | 65.7 ± 1.1 | 0.11 ± 0.16 | 24.1 ± 1.1 | 0.29 ± 0.16 |  | most effective | 6.92 ± 1.1 | melting point: > 300 °C
9 | N.N.[Cl][Pt][Cl] [cisplatin] |  |  |  |  | comparable |  |  | apoptosis profile (annexin V/PI), MDA-MB-231 (MDA-MB-231 cells [10]): lower effect
